# Test results taken from PubChem BioAssay AID256 (DTP/NCI, 2004).
# Several values for one entry are separate records, joined by “and”; a condition that tells them apart may be missing. Identical values can stand only once. Inconclusive results and toxic doses are left out.
# Test system: CD2F1 mice, L1210 leukemia ip, survival T/C
# Experiment: NCI In Vivo Anticancer Drug Screen. Data for tumor model L1210 Leukemia (intraperitoneal) in CD2F1 (CDF1) mice
# Details: higher = longer survival
# Method in brief: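 Antitumor effect is scored in animals hosting a serially transplanted tumor. Values compare compound-dosed animals against vehicle-only controls as a simple quotient.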
# [1] = endpoint: mean survival time, dose: 100.0 mg/kg/injection, schedule: Q04DX003 (ip), vehicle: saline with Tween-80
# [2] = endpoint: mean survival time, dose: 200.0 mg/kg/injection, schedule: Q04DX003 (ip), vehicle: saline with Tween-80
# [3] = endpoint: mean survival time, dose: 1.25 mg/kg/injection, schedule: Q01DX009 (ip), vehicle: saline with Tween-80
# [4] = endpoint: mean survival time, dose: 100.0 mg/kg/injection, schedule: Q01DX009 (ip), vehicle: saline
# [5] = endpoint: mean survival time, dose: 200.0 mg/kg/injection, schedule: Q01DX009 (ip), vehicle: saline
structure (smiles),measurement,setting,value
O=C(CCc1ccc(O)cc1)c1c(O)cc(O)cc1O,T/C,"endpoint: mean survival time, dose: 50.0 mg/kg/injection, schedule: Q01DX009 (ip), vehicle: saline + alcohol",110 % of control
same,T/C,"endpoint: mean survival time, dose: 100.0 mg/kg/injection, schedule: Q01DX009 (ip), vehicle: saline + alcohol",96 % of control
same,T/C,"endpoint: mean survival time, dose: 200.0 mg/kg/injection, schedule: Q01DX009 (ip), vehicle: saline + alcohol",89 % of control
same,T/C,"endpoint: mean survival time, dose: 400.0 mg/kg/injection, schedule: Q01DX009 (ip), vehicle: saline + alcohol",98 % of control
CCCC/C=C/C(O)CC (configuration not stated),T/C,[1],98 % of control
same,T/C,[2],102 % of control
same,T/C,"endpoint: mean survival time, dose: 400.0 mg/kg/injection, schedule: Q04DX003 (ip), vehicle: saline with Tween-80",96 % of control
Cc1cn(C2CC(O)C(CO)O2)c(=O)nc1N1CCCC1 (configuration not stated),T/C,"endpoint: median survival time, dose: 12.5 mg/kg/injection, schedule: Q01DX005 (ip), vehicle: water",103 % of control
same,T/C,"endpoint: median survival time, dose: 25.0 mg/kg/injection, schedule: Q01DX005 (ip), vehicle: water",108 % of control
same,T/C,"endpoint: median survival time, dose: 50.0 mg/kg/injection, schedule: Q01DX005 (ip), vehicle: water",102 % of control
same,T/C,"endpoint: median survival time, dose: 100.0 mg/kg/injection, schedule: Q01DX005 (ip), vehicle: water",101 % of control
same,T/C,"endpoint: median survival time, dose: 200.0 mg/kg/injection, schedule: Q01DX005 (ip), vehicle: water",102 % of control
CCOC(=O)N(C)N=NC,T/C,"endpoint: median survival time, dose: 3.75 mg/kg/injection, schedule: Q01DX005 (ip), vehicle: saline",110 % of control
same,T/C,"endpoint: median survival time, dose: 7.5 mg/kg/injection, schedule: Q01DX005 (ip), vehicle: saline",119 % of control
same,T/C,"endpoint: median survival time, dose: 10.8 mg/kg/injection, schedule: Q01DX005 (ip), vehicle: saline",124 % of control
same,T/C,"endpoint: median survival time, dose: 50.0 mg/kg/injection, schedule: Q01DX005 (ip), vehicle: saline",86 % of control
CN=C(NC)N/N=C(/c1ccc(Br)cc1)c1ccc(C(F)(F)F)cc1,T/C,"endpoint: mean survival time, dose: 12.5 mg/kg/injection, schedule: Q04DX002 (ip), vehicle: saline with Tween-80",90 % of control
same,T/C,"endpoint: mean survival time, dose: 25.0 mg/kg/injection, schedule: Q04DX002 (ip), vehicle: saline with Tween-80",90 % of control
same,T/C,"endpoint: mean survival time, dose: 50.0 mg/kg/injection, schedule: Q04DX003 (ip), vehicle: saline with Tween-80",98 % of control
same,T/C,"endpoint: mean survival time, dose: 100.0 mg/kg/injection, schedule: Q01DX001 (ip), vehicle: saline sonified",97 % of control
same,T/C,"endpoint: mean survival time, dose: 200.0 mg/kg/injection, schedule: Q01DX001 (ip), vehicle: saline sonified",93 % of control
N=c1c2c(C(N)=O)cn(C3OC(CO)C(O)C3O)c2ncn1N (configuration not stated),T/C,"endpoint: mean survival time, dose: 14.7 mg/kg/injection, schedule: Q01DX005 (ip), vehicle: water",110 % of control
same,T/C,"endpoint: mean survival time, dose: 22.0 mg/kg/injection, schedule: Q01DX005 (ip), vehicle: water",118 % of control
same,T/C,"endpoint: mean survival time, dose: 25.0 mg/kg/injection, schedule: Q01DX005 (ip), vehicle: water",117 % of control
same,T/C,"endpoint: mean survival time, dose: 33.0 mg/kg/injection, schedule: Q01DX005 (ip), vehicle: water",121 % of control
same,T/C,"endpoint: mean survival time, dose: 50.0 mg/kg/injection, schedule: Q01DX005 (ip), vehicle: water",120 % of control
same,T/C,"endpoint: mean survival time, dose: 75.0 mg/kg/injection, schedule: Q01DX005 (ip), vehicle: water",106 % of control
same,T/C,"endpoint: mean survival time, dose: 100.0 mg/kg/injection, schedule: Q01DX005 (ip), vehicle: water",98 % of control
c1ccc2c(c1)nnn2-c1ccncc1,T/C,[1],91 % of control
same,T/C,[2],104 % of control
Cc1cc(NC(=S)SCc2ccc3c(c2)OCO3)ccc1Cl,T/C,"endpoint: median survival time, dose: 12.5 mg/kg/injection, schedule: Q01DX009 (ip), vehicle: Klucel (hydroxypropylcellulose) (HPC)",108 % of control
same,T/C,"endpoint: median survival time, dose: 25.0 mg/kg/injection, schedule: Q01DX009 (ip), vehicle: Klucel (hydroxypropylcellulose) (HPC)",100 % of control and 106 % of control and 110 % of control
same,T/C,"endpoint: median survival time, dose: 50.0 mg/kg/injection, schedule: Q01DX009 (ip), vehicle: Klucel (hydroxypropylcellulose) (HPC)",112 % of control and 113 % of control and 106 % of control
same,T/C,"endpoint: median survival time, dose: 100.0 mg/kg/injection, schedule: Q01DX009 (ip), vehicle: Klucel (hydroxypropylcellulose) (HPC)",114 % of control
same,T/C,"endpoint: median survival time, dose: 200.0 mg/kg/injection, schedule: Q01DX009 (ip), vehicle: Klucel (hydroxypropylcellulose) (HPC)",120 % of control
O=C1C=CC(=O)N1c1ccc(O)cc1,T/C,[3],100 % of control
same,T/C,"endpoint: mean survival time, dose: 2.5 mg/kg/injection, schedule: Q01DX009 (ip), vehicle: saline with Tween-80",98 % of control
same,T/C,"endpoint: mean survival time, dose: 5.0 mg/kg/injection, schedule: Q01DX009 (ip), vehicle: saline with Tween-80",93 % of control
same,T/C,"endpoint: mean survival time, dose: 5.0 mg/kg/injection, schedule: Q04DX003 (ip), vehicle: saline with Tween-80",98 % of control
CC(C)NC(=O)C1C2CCC(C2)C1C(=O)NC(C)C (configuration not stated),T/C,"endpoint: mean survival time, dose: 100.0 mg/kg/injection, schedule: Q04DX003 (ip), vehicle: saline",98 % of control
same,T/C,"endpoint: mean survival time, dose: 200.0 mg/kg/injection, schedule: Q04DX003 (ip), vehicle: saline",111 % of control
same,T/C,"endpoint: mean survival time, dose: 400.0 mg/kg/injection, schedule: Q04DX003 (ip), vehicle: saline",98 % of control
CN1CCCC(OC(=O)N(C)C)C1 (configuration not stated),T/C,[4],96 % of control
same,T/C,[5],98 % of control
C1=CC(c2ccccc2)C(c2ccccc2)C(c2ccccc2)=C1 (configuration not stated),T/C,"endpoint: mean survival time, dose: 100.0 mg/kg/injection, schedule: Q01DX001 (ip), vehicle: saline with Tween-80",95 % of control
same,T/C,"endpoint: mean survival time, dose: 200.0 mg/kg/injection, schedule: Q01DX001 (ip), vehicle: saline with Tween-80",87 % of control
same,T/C,"endpoint: mean survival time, dose: 400.0 mg/kg/injection, schedule: Q01DX001 (ip), vehicle: saline with Tween-80",87 % of control
CC(C(=O)O)C(=O)O.[NH-]CC[NH-].[Pt+2],T/C,"endpoint: mean survival time, dose: 60.0 mg/kg/injection, schedule: Q04DX003 (ip), vehicle: water",116 % of control
Nc1nc(SCc2ccccc2)c2[nH]cnc2n1,T/C,"endpoint: mean survival time, dose: 15.6 mg/kg/injection, schedule: Q01DX009 (ip), vehicle: saline",118 % of control
same,T/C,"endpoint: mean survival time, dose: 31.3 mg/kg/injection, schedule: Q01DX009 (ip), vehicle: saline",158 % of control and 183 % of control
same,T/C,"endpoint: mean survival time, dose: 37.5 mg/kg/injection, schedule: Q03DX003 (ip), vehicle: saline",151 % of control
same,T/C,"endpoint: mean survival time, dose: 37.5 mg/kg/injection, schedule: Q04DX003 (ip), vehicle: saline",164 % of control
same,T/C,"endpoint: mean survival time, dose: 62.5 mg/kg/injection, schedule: Q01DX009 (ip), vehicle: saline",180 % of control and 181 % of control
same,T/C,"endpoint: mean survival time, dose: 75.0 mg/kg/injection, schedule: Q04DX003 (ip), vehicle: saline",160 % of control
same,T/C,"endpoint: mean survival time, dose: 125.0 mg/kg/injection, schedule: Q01DX009 (ip), vehicle: saline",161 % of control
same,T/C,"endpoint: mean survival time, dose: 150.0 mg/kg/injection, schedule: Q01DX007 (ip), vehicle: saline",107 % of control
same,T/C,"endpoint: mean survival time, dose: 150.0 mg/kg/injection, schedule: Q01DX009 (ip), vehicle: saline",100 % of control
same,T/C,"endpoint: mean survival time, dose: 150.0 mg/kg/injection, schedule: Q03DX003 (ip), vehicle: saline",150 % of control
same,T/C,"endpoint: median survival time, dose: 31.3 mg/kg/injection, schedule: Q01DX009 (ip), vehicle: saline",150 % of control and 162 % of control
same,T/C,"endpoint: median survival time, dose: 62.5 mg/kg/injection, schedule: Q01DX009 (ip), vehicle: saline",155 % of control and 156 % of control
same,T/C,"endpoint: median survival time, dose: 125.0 mg/kg/injection, schedule: Q01DX009 (ip), vehicle: saline",88 % of control and 112 % of control
same,T/C,"endpoint: median survival time, dose: 250.0 mg/kg/injection, schedule: Q01DX009 (ip), vehicle: saline",87 % of control
CCC1(O)C(=O)OCc2c1cc1n(c2=O)Cc2cc3ccc([N+](=O)[O-])cc3nc2-1 (configuration not stated),T/C,"endpoint: median survival time, dose: 10.0 mg/kg/injection, schedule: Q04DX002 (ip), vehicle: saline with Tween-80",114 % of control
CC(C)(C)NC(=O)NCCCN1CCOCC1,T/C,[4],102 % of control
same,T/C,[5],98 % of control
same,T/C,"endpoint: mean survival time, dose: 400.0 mg/kg/injection, schedule: Q01DX009 (ip), vehicle: saline",91 % of control
c1ccc2c(c1)ccc1c[n+]3ccccc3cc12,T/C,[3],95 % of control
same,T/C,"endpoint: mean survival time, dose: 5.0 mg/kg/injection, schedule: Q04DX003 (ip), vehicle: saline sonified",96 % of control
O=c1nc(NCCc2c[nH]c3ccccc23)ccn1C1OC(CO)C(O)C1O (configuration not stated),T/C,"endpoint: median survival time, dose: 12.5 mg/kg/injection, schedule: Q01DX005 (ip), vehicle: distilled water + Tween-80",101 % of control
same,T/C,"endpoint: median survival time, dose: 25.0 mg/kg/injection, schedule: Q01DX005 (ip), vehicle: distilled water + Tween-80",100 % of control
same,T/C,"endpoint: median survival time, dose: 50.0 mg/kg/injection, schedule: Q01DX005 (ip), vehicle: distilled water + Tween-80",98 % of control
same,T/C,"endpoint: median survival time, dose: 100.0 mg/kg/injection, schedule: Q01DX005 (ip), vehicle: distilled water + Tween-80",98 % of control
same,T/C,"endpoint: median survival time, dose: 200.0 mg/kg/injection, schedule: Q01DX005 (ip), vehicle: distilled water + Tween-80",98 % of control
O=C1C2CC3C1C1(Cl)C(Cl)C4(Cl)C2C3C1(Cl)C4(Cl)Cl (configuration not stated),T/C,"endpoint: mean survival time, dose: 9.5 mg/kg/injection, schedule: Q01DX001 (ip), vehicle: other",98 % of control
same,T/C,"endpoint: mean survival time, dose: 19.0 mg/kg/injection, schedule: Q01DX001 (ip), vehicle: other",104 % of control
same,T/C,"endpoint: mean survival time, dose: 38.0 mg/kg/injection, schedule: Q01DX001 (ip), vehicle: other",103 % of control
same,T/C,"endpoint: mean survival time, dose: 75.0 mg/kg/injection, schedule: Q01DX001 (ip), vehicle: other",104 % of control
